Assay results taken from article PMC7180572, “5-Alkylamino-N-phenylpyrazine-2-carboxamides: Design, Preparation, and Antimycobacterial Evaluation” (Molecules, 2020).
In brackets after ≈: the same amount, converted by molar mass. Where two headings read alike, the source gives them in different places.

Tests used:
[1] = test system: Mycobacterium tuberculosis H37Ra ITM-M006710 (ATCC 9431); test: Microdilution broth, modified Microplate Alamar Blue Assay, whole cell growth inhibition; assay type: cell-based; conditions: Mycobacterium tuberculosis; in vitro, Middlebrook 7H9 broth, resazurin; read-out: MIC Mtb H37Ra
[2] = test system: Mycobacterium smegmatis DSM 43465 (ATCC 607); test: as above; assay type: cell-based; conditions: Mycolicibacterium smegmatis, read-out: MIC Mycobacterium smegmatis
[3] = test system: Aspergillus flavus CCM 8363; test: Antifungal microdilution broth method (EUCAST); assay type: cell-based; conditions: read-out: MIC AFla
[4] = test system: Enterococcus faecalis ATCC 29212, CCM 4224; test: Antibacterial microdilution broth method (EUCAST); assay type: cell-based; conditions: read-out: MIC EF
[5] = test system: Escherichia coli ATCC 25922, CCM 3954; test: Antibacterial microdilution broth method (EUCAST); assay type: cell-based; conditions: read-out: MIC EC
HepG2 cells = test: HepG2 cytotoxicity, CellTiter 96 (MTS) assay; assay type: cell-based, human; conditions: for IC50: Homo sapiens, HepG2, 24 h, read-out: HepG2 IC50
[6] = test system: Candida albicans ATCC 24433, CCM 8320; test: Antifungal microdilution broth method (EUCAST); assay type: cell-based
[7] = test system: Candida tropicalis ATCC 750, CCM 8264; test: Antifungal microdilution broth method (EUCAST); assay type: cell-based; conditions: read-out: MIC CT
[8] = test system: Pseudomonas aeruginosa ATCC 27853, CCM 3955; test: Antibacterial microdilution broth method (EUCAST); assay type: cell-based; conditions: read-out: MIC PA
[9] = test system: Acinetobacter baumanii ATCC 19606, DSM 30007; test: Antibacterial microdilution broth method (EUCAST); assay type: cell-based; conditions: Acinetobacter baumannii
[10] = test system: Candida parapsilosis ATCC 22019, CCM 8260; test: Antifungal microdilution broth method (EUCAST); assay type: cell-based; conditions: Lodderomyces parapsilosis
[11] = test system: Mycobacterium aurum DSM 43999 (ATCC 23366); test: Microdilution broth, modified Microplate Alamar Blue Assay, whole cell growth inhibition; assay type: cell-based; conditions: Mycolicibacterium aurum, read-out: MIC Mycobacterium aurum
[12] = test system: Candida krusei ATCC 6258, CCM 8271; test: Antifungal microdilution broth method (EUCAST); assay type: cell-based; conditions: Pichia kudriavzevii
[13] = test system: Trichophyton interdigitale ATCC 9533, CCM 8377; test: Antifungal microdilution broth method (EUCAST); assay type: cell-based; conditions: read-out: MIC TI
[14] = test system: Aspergillus fumigatus ATCC 204305; test: Antifungal microdilution broth method (EUCAST); assay type: cell-based; conditions: read-out: MIC AF
[15] = test system: Absidia corymbifera CCM 8077 (Lichtheimia corymbifera); test: Antifungal microdilution broth method (EUCAST); assay type: cell-based; conditions: read-out: MIC AC
[16] = test system: Staphylococcus aureus spp.aureus ATCC 29213, CCM 4223; test: Antibacterial microdilution broth method (EUCAST); assay type: cell-based; conditions: read-out: MIC SA
[17] = test system: Klebsiella pneumoniae ATCC 10031, CCM 4415; test: Antibacterial microdilution broth method (EUCAST)
[18] = test system: Staphylococcus aureus methicillin resistant ATCC 43300, CCM 4750; test: microbe, parasite or virus in culture; assay type: cell-based; conditions: ATCC 43300 / CCM 4750 / MRSA, read-out: MIC MRSA
[19] = test system: Staphylococcus epidermidis ATCC 12228, CCM 4418; test: Antibacterial microdilution broth method (EUCAST); assay type: cell-based; conditions: read-out: MIC SE

CCCCCNc1cnc(C(=O)Nc2cccc(C(F)(F)F)c2)cn1 [Compound 1c, 5-(Pentylamino)-N-(3-(trifluoromethyl)phenyl)pyrazine-2-carboxamide]
MIC [1]: 3.13 mg/L (≈ 8.88 µM) | MIC [2]: 1.56 mg/L (≈ 4.43 µM) | MIC ([3]; CCM8363, 24 h): > 125 µM | MIC ([3]; CCM8363, 48 h): > 125 µM | MIC ([4]; 24 h): > 500 µM | MIC ([4]; 48 h): > 500 µM | MIC ([5]; 24 h): > 500 µM | MIC ([5]; 48 h): > 500 µM | IC50 (HepG2 cells): 18.9 µM | SI, selectivity index (HepG2 cells; IC50 (HepG2)/MIC against Mtb H37Ra (in µM)): 2.13 | MIC ([6]; 24 h, read-out: MIC CA): > 125 µM | MIC ([6]; 48 h, read-out: MIC CA): > 125 µM | MIC ([6]; read-out: MIC CA (Candida albicans)): > 125 µM | MIC ([7]; 24 h): > 125 µM | MIC ([7]; 48 h): > 125 µM | melting point: 128 to 129 °C | MIC ([8]; 72 h): > 500 µM | MIC ([8]; 120 h): > 500 µM | MIC ([9]; 24h): > 500 µM | MIC ([9]; 48h): > 500 µM | MIC ([10]; 24 h, read-out: MIC CP): 125 µM (≈ 44 µg/mL) | MIC ([10]; 48 h, read-out: MIC CP): 125 µM (≈ 44 µg/mL) | MIC ([10]; read-out: MIC CP (Candida parapsilosis)): 125 µM (≈ 44 µg/mL) | MIC [11]: 3.13 mg/L (≈ 8.88 µM) | MIC ([12]; 24 h, read-out: MIC CK): 62.5 µM (≈ 22 µg/mL) | MIC ([12]; 48 h, read-out: MIC CK): 62.5 µM (≈ 22 µg/mL) | MIC ([12]; read-out: MIC CK (Candida krusei)): 62.5 µM (≈ 22 µg/mL) | MIC ([13]; 72 h): > 125 µM | MIC ([13]; 120 h): > 125 µM | MIC ([14]; ATCC204305, 24 h): > 125 µM | MIC ([14]; ATCC204305, 48 h): > 125 µM | MIC ([15]; CCM8077, 24 h): > 125 µM | MIC ([15]; CCM8077, 48 h): > 125 µM | MIC ([16]; 24 h): > 500 µM | MIC ([16]; 48 h): > 500 µM | MIC KP ([17]; 24h): > 500 µM | MIC KP ([17]; 48h): > 500 µM | MIC ([18]; 24 h): > 500 µM | MIC ([18]; 48 h): > 500 µM | MIC ([19]; 24 h): > 500 µM | MIC ([19]; 48 h): > 500 µM

CCCCCCNc1cnc(C(=O)Nc2cccc(C(F)(F)F)c2)cn1 [Compound 1d, 5-(Hexylamino)-N-(3-(trifluoromethyl)phenyl)pyrazine-2-carboxamide]
MIC [1]: ≥ 500 mg/L | MIC [2]: ≥ 500 mg/L | MIC ([3]; CCM8363, 24 h): > 500 µM | MIC ([3]; CCM8363, 48 h): > 500 µM | MIC ([4]; 24 h): > 500 µM | MIC ([4]; 48 h): > 500 µM | MIC ([5]; 24 h): > 500 µM | MIC ([5]; 48 h): > 500 µM | IC50 (HepG2 cells): > 25 µM | MIC ([6]; 24 h, read-out: MIC CA): > 500 µM | MIC ([6]; 48 h, read-out: MIC CA): > 500 µM | MIC ([7]; 24 h): > 500 µM | MIC ([7]; 48 h): > 500 µM | melting point: 148 to 149 °C | MIC ([8]; 72 h): > 500 µM | MIC ([8]; 120 h): > 500 µM | MIC ([9]; 24h): > 500 µM | MIC ([9]; 48h): > 500 µM | MIC ([10]; 24 h, read-out: MIC CP): > 500 µM | MIC ([10]; 48 h, read-out: MIC CP): > 500 µM | MIC [11]: 25 mg/L (≈ 68.2 µM) | MIC ([12]; 24 h, read-out: MIC CK): > 500 µM | MIC ([12]; 48 h, read-out: MIC CK): > 500 µM | MIC ([13]; 72 h): > 500 µM | MIC ([13]; 120 h): > 500 µM | MIC ([14]; ATCC204305, 24 h): > 500 µM | MIC ([14]; ATCC204305, 48 h): > 500 µM | MIC ([15]; CCM8077, 24 h): > 500 µM | MIC ([15]; CCM8077, 48 h): > 500 µM | MIC ([16]; 24 h): > 500 µM | MIC ([16]; 48 h): > 500 µM | MIC KP ([17]; 24h): > 500 µM | MIC KP ([17]; 48h): > 500 µM | MIC ([18]; 24 h): > 500 µM | MIC ([18]; 48 h): > 500 µM | MIC ([19]; 24 h): > 500 µM | MIC ([19]; 48 h): > 500 µM

CCCCCCCNc1cnc(C(=O)Nc2cccc(C(F)(F)F)c2)cn1 [Compound 1e, 5-(Heptylamino)-N-(3-(trifluoromethyl)phenyl)pyrazine-2-carboxamide]
MIC [1]: ≥ 500 mg/L | MIC [2]: ≥ 500 mg/L | MIC ([3]; CCM8363, 24 h): > 500 µM | MIC ([3]; CCM8363, 48 h): > 500 µM | MIC ([4]; 24 h): > 500 µM | MIC ([4]; 48 h): > 500 µM | MIC ([5]; 24 h): > 500 µM | MIC ([5]; 48 h): > 500 µM | IC50 (HepG2 cells): 223 µM | MIC ([6]; 24 h, read-out: MIC CA): > 500 µM | MIC ([6]; 48 h, read-out: MIC CA): > 500 µM | MIC ([7]; 24 h): > 500 µM | MIC ([7]; 48 h): > 500 µM | melting point: 148 to 149 °C | MIC ([8]; 72 h): > 500 µM | MIC ([8]; 120 h): > 500 µM | MIC ([9]; 24h): > 500 µM | MIC ([9]; 48h): > 500 µM | MIC ([10]; 24 h, read-out: MIC CP): > 500 µM | MIC ([10]; 48 h, read-out: MIC CP): > 500 µM | MIC [11]: 62.5 mg/L (≈ 164 µM) | MIC ([12]; 24 h, read-out: MIC CK): > 500 µM | MIC ([12]; 48 h, read-out: MIC CK): > 500 µM | MIC ([13]; 72 h): > 500 µM | MIC ([13]; 120 h): > 500 µM | MIC ([14]; ATCC204305, 24 h): > 500 µM | MIC ([14]; ATCC204305, 48 h): > 500 µM | MIC ([15]; CCM8077, 24 h): > 500 µM | MIC ([15]; CCM8077, 48 h): > 500 µM | MIC ([16]; 24 h): > 500 µM | MIC ([16]; 48 h): > 500 µM | MIC KP ([17]; 24h): > 500 µM | MIC KP ([17]; 48h): > 500 µM | MIC ([18]; 24 h): > 500 µM | MIC ([18]; 48 h): > 500 µM | MIC ([19]; 24 h): > 500 µM | MIC ([19]; 48 h): > 500 µM
